Measured values as given in ChEMBL document CHEMBL1150524, “Two novel, potent and selective histamine H3 receptor agonists” (Bioorg Med Chem Lett, 1992).
Active and inactive are the calls of the source. The rule behind the calls is not given here.

Experiments:
Type in all cases: functional, tissue-based
Histamine H3 receptor = Histamine H3 receptor (Cavia porcellus, UniProt Q9JI35); assay: Histamine H3 receptor agonist activity was assessed by the inhibition of the electrically evoked twitch response of the guinea-pig ileum.
[1] = target: Histamine H1 receptor (Cavia porcellus) (UniProt P31389); assay: Effect on histamine H1 receptor of the guinea-pig ileum, at 10e-5 M concentration; not significant
[2] = target: Histamine H2 receptor (Cavia porcellus) (UniProt P47747); assay: Effect on histamine H2 receptor of the guinea-pig atrium, at 10e-5 M concentration; not significant; conditions: Cardiac atrium
Histamine H2 receptor (Cavia porcellus), sequence (P47747 whole entry): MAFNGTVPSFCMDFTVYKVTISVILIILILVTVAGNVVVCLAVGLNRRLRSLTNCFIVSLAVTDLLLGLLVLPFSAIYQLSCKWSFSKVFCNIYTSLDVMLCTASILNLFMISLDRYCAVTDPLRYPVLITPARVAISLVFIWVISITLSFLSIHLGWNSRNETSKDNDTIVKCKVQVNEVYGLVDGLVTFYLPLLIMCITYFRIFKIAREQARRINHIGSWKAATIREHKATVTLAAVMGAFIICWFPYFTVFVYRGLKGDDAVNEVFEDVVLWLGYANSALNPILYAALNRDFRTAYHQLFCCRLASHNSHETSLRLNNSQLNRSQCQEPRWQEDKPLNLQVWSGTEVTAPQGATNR

Histamine H1 receptor (Cavia porcellus), sequence (P31389 whole entry): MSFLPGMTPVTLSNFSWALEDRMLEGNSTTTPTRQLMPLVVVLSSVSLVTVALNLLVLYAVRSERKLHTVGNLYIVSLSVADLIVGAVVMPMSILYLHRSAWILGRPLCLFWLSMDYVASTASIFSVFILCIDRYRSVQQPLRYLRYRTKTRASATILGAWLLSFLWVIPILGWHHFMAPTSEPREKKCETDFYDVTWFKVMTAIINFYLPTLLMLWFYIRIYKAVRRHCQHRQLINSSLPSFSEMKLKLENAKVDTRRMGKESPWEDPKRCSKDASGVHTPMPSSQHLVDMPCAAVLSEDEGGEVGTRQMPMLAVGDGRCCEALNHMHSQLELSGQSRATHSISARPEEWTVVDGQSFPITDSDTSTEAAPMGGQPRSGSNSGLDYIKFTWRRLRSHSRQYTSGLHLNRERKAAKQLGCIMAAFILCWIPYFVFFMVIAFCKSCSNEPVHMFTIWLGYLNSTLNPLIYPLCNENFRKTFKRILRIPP
Histamine H3 receptor, sequence (Q9JI35 whole entry): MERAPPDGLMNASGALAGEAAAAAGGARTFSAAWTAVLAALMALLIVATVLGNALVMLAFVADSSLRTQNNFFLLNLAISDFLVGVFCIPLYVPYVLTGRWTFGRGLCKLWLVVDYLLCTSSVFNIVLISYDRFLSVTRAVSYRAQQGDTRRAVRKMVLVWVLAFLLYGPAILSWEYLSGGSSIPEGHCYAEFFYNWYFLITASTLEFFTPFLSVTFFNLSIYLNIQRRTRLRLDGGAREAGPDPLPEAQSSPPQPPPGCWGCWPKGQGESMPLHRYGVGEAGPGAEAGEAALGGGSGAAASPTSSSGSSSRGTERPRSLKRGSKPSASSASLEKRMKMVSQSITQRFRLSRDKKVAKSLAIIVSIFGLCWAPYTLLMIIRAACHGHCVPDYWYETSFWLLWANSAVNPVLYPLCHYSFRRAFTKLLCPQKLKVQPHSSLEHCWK

| IC50 (Histamine H3 receptor) [nM] | Activity [1] | Activity [2] | SMILES |
| --- | --- | --- | --- |
| 1.1 | inactive | inactive | N=C(N)CCCc1c[nH]cn1 |
|  | inactive | inactive | N=C(N)SCCc1c[nH]cn1 |
| 4.6 |  |  | N=C(N)SCCc1cnc[nH]1 [IMETIT] |
